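In this assay, cells in 96-well plates receive the compound at five concentrations for 48 hours. Endpoints are linearly interpolated between the surrounding concentrations. GI50 = concentration required for 50% inhibition of growth. TGI denotes the concentration required for complete inhibition of growth.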
What was measured:
Experiment in all cases: NCI tumour cell line growth inhibition, 48 h
DU-145 prostate = tested on: DU-145 prostate
HS 578T breast = tested on: HS 578T breast
KM12 colon = tested on: KM12 colon
M14 melanoma = tested on: M14 melanoma
NCI/ADR-RES ovarian = tested on: NCI/ADR-RES ovarian
RPMI-8226 leukemia = tested on: RPMI-8226 leukemia
SK-MEL-2 melanoma = tested on: SK-MEL-2 melanoma
SK-MEL-5 melanoma = tested on: SK-MEL-5 melanoma
SN12C renal = tested on: SN12C renal
SW-620 colon = tested on: SW-620 colon

Structure (SMILES) | GI50 (DU-145 prostate) [µM] | TGI (DU-145 prostate) [µM] | GI50 (HS 578T breast) [µM] | TGI (HS 578T breast) [µM] | GI50 (KM12 colon) [µM] | TGI (KM12 colon) [µM] | GI50 (M14 melanoma) [µM] | TGI (M14 melanoma) [µM] | GI50 (NCI/ADR-RES ovarian) [µM] | TGI (NCI/ADR-RES ovarian) [µM] | GI50 (RPMI-8226 leukemia) [µM] | TGI (RPMI-8226 leukemia) [µM] | GI50 (SK-MEL-2 melanoma) [µM] | TGI (SK-MEL-2 melanoma) [µM] | GI50 (SK-MEL-5 melanoma) [µM] | TGI (SK-MEL-5 melanoma) [µM] | GI50 (SN12C renal) [µM] | TGI (SN12C renal) [µM] | GI50 (SW-620 colon) [µM] | TGI (SW-620 colon) [µM]
O=C(/C=C\c1ccc2ccccc2n1)c1cc(Cl)ccc1O | 5.81 | 19.4 | 16.2 | 62.6 | 8.71 | 24.5 | 4.92 | 17.2 | 2.6 | 8.04 | 2.15 | 5.83 | 11.7 | 45.2 | 13.4 | 37.5 | 9.58 | 24.4 | 1.84 | 3.84
CCC(=O)c1ccc2c(c1)N(CCCN1CCN(CCO)CC1)c1ccccc1S2 | 15.4 | 28.9 | 13.3 | 36.5 | 14.9 | 28.7 | 2.22 | 4.63 | 14.7 | 29.4 | 8.82 | 27.6 | 17.7 | 33.4 | 8.65 | 21.1 | 16.3 | 33 | 16.1 | 31
O=C(NC1(C(=O)O)CC1c1ccccc1)c1ccccc1 (stereo not drawn) |  | > 100 |  | > 100 |  | > 100 |  | > 100 |  | > 100 |  | > 100 |  | > 100 |  |  |  | > 100 |  | > 100
COc1ccc2[nH]cc(-c3nc(-c4c[nH]c5ccncc45)cs3)c2c1 | 2.73 | 8.57 | 2.15 | 4.95 | 1.76 | 3.75 | 1.83 | 3.62 | 2.48 | 6.84 | 2.08 | 4.76 | 2.05 | 3.91 | 1.65 | 3.05 | 1.83 | 3.61 | 1.93 | 3.84
Cc1cc2nc3c4cccc(O)c4n(CCN(C)C)c3nc2cc1C | 2.96 | 8.79 | 3.32 | 31.8 | 1.65 | 4.17 | 1.63 | 3.43 | 1.97 | 11.4 | 1.36 | 4.62 | 1.93 | 4.22 | 1.67 | 3.08 | 2.28 | 13.8 | 1.53 | 8.08
CO/C(=N\N=C\c1cccc(C(F)(F)F)c1)c1ccncc1 | 33.6 | > 100 |  | 38.7 |  | > 100 |  | 94.4 | 5.37 |  | 7.15 | 81.9 | 22.6 | > 100 |  | 32.4 | 16.7 | > 100 |  | > 100
CN(C)S(=O)(=O)c1ccc(Nc2ccc(O)c3c2C(=O)c2c([N+](=O)[O-])ccc(O)c2C3=O)cc1 |  | > 100 |  | > 100 |  | > 100 |  | > 100 |  | > 100 |  | > 100 |  | > 100 |  | > 100 |  | > 100 |  | > 100
CN(C)CCNC(=O)c1nc([N+](=O)[O-])cn1C |  | > 100 |  | > 100 |  | > 100 |  | > 100 |  | > 100 |  | > 100 |  | > 100 |  | > 100 |  | > 100 |  | > 100
